Source: ChEMBL document CHEMBL1201862, “PubChem BioAssay data set” (2004)
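Interpolation was linear, between the two tested concentrations surrounding the appropriate level; five concentrations were tested over 48 hours in 96-well plates. At the GI50, growth is halved.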 Active and inactive are the calls of the source. No stated cut-off is given here; in the data, active = GI50 up to about 1.1 µM and inactive = higher.

Legend:
Assay in all cases: DTP human tumour cell line panel, 48 h
[1] = test system: HOP-92
[2] = test system: SNB-19
[3] = test system: SK-MEL-5
[4] = test system: SK-OV-3
[5] = test system: HOP-62
[6] = test system: 786-0
[7] = test system: Hs-578T
[8] = test system: Malme-3M
[9] = test system: M14
[10] = test system: COLO 205
[11] = test system: NCI/ADR-RES
[12] = test system: NCI-H226
[13] = test system: SF-268
[14] = test system: A549
[15] = test system: SNB-75
[16] = test system: MDA-N
[17] = test system: CAKI-1
[18] = test system: HCT-116
[19] = test system: SK-MEL-28
[20] = test system: SW-620

Measured: GI50

COC(=O)c1ccccc1CC1Cc2cccc(C)c2C1=O (stereo not given)
inactive: [1] 23.8 µM | [2] 52.5 µM | [3] 21.4 µM | [4] 38.9 µM | [5] > 100 µM | [6] 47.5 µM | [7] 38.3 µM | [8] 19.2 µM | [9] 34.8 µM | [10] 20.3 µM | [11] 32.7 µM | [12] 27 µM | [13] 37.8 µM | [14] 51.8 µM | [15] 22.7 µM | [16] 36.1 µM | [17] 80.2 µM | [18] 23.8 µM | [19] 32.5 µM | [20] 42.4 µM

Cc1ccc2occ/c(=N\Nc3ccccc3)c2c1
inactive: [1] 19.5 µM | [2] > 100 µM | [3] 41.5 µM | [4] 59.6 µM | [5] 32.6 µM | [6] 21.2 µM | [7] 65.3 µM | [8] 29.5 µM | [9] 43 µM | [10] 41.1 µM | [11] 39 µM | [12] 29.9 µM | [13] > 100 µM | [14] 57 µM | [15] 24.3 µM | [16] 65.9 µM | [17] 54 µM | [18] 47.2 µM | [19] 62.2 µM | [20] > 100 µM

O=C1C(c2ccccc2)=C(c2ccccc2)C1(Cl)Cl
inactive: [1] 2.37 µM | [2] 16.7 µM | [3] 2.82 µM | [4] 15.8 µM | [5] 14.8 µM | [6] 2.69 µM | [7] 3.56 µM | [8] 2.86 µM | [9] 2.22 µM | [10] 2.59 µM | [11] 3.2 µM | [12] 3.07 µM | [13] 2.99 µM | [14] 11.4 µM | [15] 4.95 µM | [16] 2.02 µM | [17] 2.62 µM | [18] 1.5 µM | [19] 3.78 µM | [20] 2.75 µM
